Test results published in ChEMBL document CHEMBL1151660, “Carotenoids of tunicates. III. The structural elucidation of two new marine carotenoids, amarouciaxanthin A and B” (1985).
≈ marks a conversion by molar mass, not a printed value.

How the values were obtained:
P388 = experiment: Cytotoxicity against mouse P388 cells after 4 days; format: functional; settings: P388, 96 h, read-out: ED50 (the source's name)
L1210 = experiment: Cytotoxicity against mouse L1210 cells after 4 days; format: functional; settings: L1210, 96 h, read-out: ED50 (the source's name)

`CC1=CC(=O)CC(C)(C)[C@@]1(O)CC(=O)/C(C)=C/C=C/C(C)=C/C=C/C=C(C)/C=C/C=C(\C)C=C=C1C(C)(C)C[C@H](O)C[C@@]1(C)O` [AMAROUCIAXANTHIN A] showed an EC50 (P388) of 150 µg/mL (≈ 244 µM) and an EC50 (L1210) of 50 µg/mL (≈ 81.3 µM).

For `CC1=C(C#C/C(C)=C/C=C/C(C)=C/C=C/C=C(C)/C=C/C=C(\C)C(=O)C[C@@]23O[C@]2(C)C[C@@H](O)CC3(C)C)C(C)(C)C[C@H](O)C1` [HALOCYNTHIAXANTHIN], the EC50 (P388) was 12.5 µg/mL (≈ 20.9 µM) and the EC50 (L1210) was 25 µg/mL (≈ 41.7 µM).

`CC1=CC(=O)CC(C)(C)[C@@]1(O)CC(=O)/C(C)=C/C=C/C(C)=C/C=C/C=C(C)/C=C/C=C(\C)C#CC1=C(C)C[C@@H](O)CC1(C)C` [AMAROUCIAXANTHIN B] was tested, and the EC50 (P388) was 300 µg/mL (≈ 503 µM) and the EC50 (L1210) was 100 µg/mL (≈ 168 µM).
